These results are taken from patent US11910798B2, “Compositions including a vacancy-engineered (VE)-ZnO nanocomposite, methods of making the compositions and methods of using the compositions” (priority 2015, dated 2024).

In this experiment the test system is E. coli. In words: MIC against E. coli. The experiment is classed as cell-based. As to conditions: Escherichia coli, read-out: MIC (μg/mL) in metallic Zn or Cu. From the text: Table 1 illustrates the minimum inhibitory concentration against E. coli for various agents.

Structures are written as SMILES.

`O=C([O-])c1ccccc1O.[Na+]` [Capping Agent, sodium salicylate]: the MIC was 3000 µg/mL.
